In assay [1] the target is T1, β5 subunit of the human immunoproteasome (IPS) (Homo sapiens, UniProt P28062).
T1 construct: purchased Boston Biochem E-370
The experiment in a line: β5 inhibition assay, human immunoproteasome (Suc-LLVY-AMC). The assay is classed as biochemical. As to conditions: IC50 class, Suc-LLVY-AMC substrate. The essentials:
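Human immunoproteasome (1 nM final) was preincubated 10 min at RT with compound in 100 mM HEPES pH 7.5, 50 mM NaCl, 0.02% SDS, 1 mM DTT. Suc-LLVY-AMC (22.6 μM final) was then added for 4 h at RT in the dark. After stopping with 1 μM bortezomib, AMC fluorescence was read (ex 355/em 460 nm).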

Assay [2] deals with A549 (human lung carcinoma cell line). Put plainly: Glo assay of A549 cells (Table 3; ProteasomeGlo plating scheme). The assay is classed as cell-based. As to conditions: Homo sapiens; A549 cells; read-out: PGLo A549. The essentials: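 Luminescent read-out of cellular chymotrypsin-like proteasome activity: cells exposed to compound 105 min at 37° C., 5% CO2, then given Suc-LLVY-Glo reagent, shaken 2-5 min and kept dark 10-15 min before reading. Values are IC50 [nM].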

For assay [3], the target named is T2, β5 subunit of the human constitutive proteasome (CPS) (Homo sapiens, UniProt P28074).
T2 construct: purchased Boston Biochem E-360
Put plainly: β5 inhibition assay, human constitutive proteasome (Suc-LLVY-AMC). The assay is classed as biochemical. As to conditions: IC50 class, Suc-LLVY-AMC substrate. How it is done: The enzymatic activity of the β5 subunit of the human constitutive proteasome (CPS) is analyzed. In another assay, which differs from the assay of the human constitutive proteasome only in using the human immunoproteasome (IPS) the enzymatic activity of the β5 subunit of the human immunoproteasome (IPS) is analyzed. […] Inhibition is indicated as IC50 [nM] (“-”=not measured).

In assay [4] the test system is RPMI 8226 (B lymphocyte cell line, multiple myeloma). The experiment in a line: 48 hr CTG viability assay, RPMI 8226. It is filed as cell-based. As to conditions: Homo sapiens, RPMI-8226; 48 hr CTG; read-out: RPMI-8226 IC50. The essentials:
(§1)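 Growth inhibition by compound over 48 h; IC50 (nM) derived from duplicate CellTiter-Glo luminescence readings across 0.0015–10 uM.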

Assay [5] deals with MM1 S (B lymphoblast cell line). Put plainly: 48 hr CTG viability assay, MM1S. As to conditions: Homo sapiens, 48 hr CTG, read-out: MM1S IC50. The assay is classed as cell-based. The essentials:
as §1

Assay [6] has as its system Hs 746T (human gastric carcinoma cell line). The experiment in a line: 48 hr CTG viability assay, Hs 746T. It is filed as cell-based. Particulars: Hs746T, 48 hr CTG, read-out: Hs 746T IC50. Put shortly:
as §1

Bounds are passed on as bounds.

Consider `Cc1ccc2cc1CNC(=O)[C@H](CCc1ccccc1)NC(=O)[C@@H](NC1CC3CCC1C3)CC(=O)N1CCCC(CCO2)C1` (stereo partly drawn) [Compound 712, (9S,12S)-12-(bicyclo[2.2.1]heptan-2-ylamino)-5^4-methyl-9-phenethyl-4-oxa-7,10-diaza-1(3,1)-piperidina-5(1,3)-benzenacyclotetradecaphane-8,11,14-trione], for which the IC50 is less than 100 nM in assay [1]; less than 100 nM in assay [2]; less than 100 nM in assay [3]; less than 100 nM in assay [4]; less than 100 nM in assay [5]; 100 to 500 nM in assay [6].

`Cc1ccc2cc1CNC(=O)[C@H](CCc1ccccc1)NC(=O)[C@@H](NC(=O)C1CC3CCC(C1)N3C)CC(=O)N1CCCC(CCO2)C1` (stereo partly drawn) [Compound 713, 8-methyl-N-((9S,12S)-5^4-methyl-8,11,14-trioxo-9-phenethyl-4-oxa-7,10-diaza-1(3,1)-piperidina-5(1,3)-benzenacyclotetradecaphane-12-yl)-8-azabicyclo[3.2.1]octane-3-carboxamide]: the IC50 is less than 100 nM in assay [1]; less than 100 nM in assay [2]; less than 100 nM in assay [3]; less than 100 nM in assay [4]; less than 100 nM in assay [5]; 100 to 500 nM in assay [6].

Take `Cc1ccc2cc1CNC(=O)[C@H](CCc1ccccc1)NC(=O)[C@@H](NC(=O)C1CC3(C1)CN(C)C3)CC(=O)N1CCCC(CCO2)C1` (stereo partly drawn) [Compound 714, 2-methyl-N-((9S,12S)-5^4-methyl-8,11,14-trioxo-9-phenethyl-4-oxa-7,10-diaza-1(3,1)-piperidina-5(1,3)-benzenacyclotetradecaphane-12-yl)-2-azaspiro[3.3]heptane-6-carboxamide]: the IC50 in assay [1] is less than 100 nM; in assay [2] it was less than 100 nM; in assay [3] it was less than 100 nM; in assay [4], less than 100 nM; in assay [5] it was 100 to 500 nM; in assay [6], 100 to 500 nM.

Regarding `Cc1ccc2cc1CNC(=O)[C@H](CCc1ccccc1)NC(=O)[C@@H](NC(=O)C1(C)CNC1)CC(=O)N1CCCC(CCO2)C1` (stereo partly drawn) [Compound 715, 3-methyl-N-((9S,12S)-5^4-methyl-8,11,14-trioxo-9-phenethyl-4-oxa-7,10-diaza-1(3,1)-piperidina-5(1,3)-benzenacyclotetradecaphane-12-yl)azetidine-3-carboxamide], the IC50 in assay [1] is less than 100 nM; in assay [2], less than 100 nM; in assay [3], less than 100 nM; in assay [4], less than 100 nM; in assay [5], less than 100 nM; in assay [6], 100 to 500 nM.

For the compound `Cc1ccc2cc1CNC(=O)[C@H](CCc1ccccc1)NC(=O)[C@@H](NC(=O)N1CCNCC1)CC(=O)N1CCCC(CCO2)C1` (stereo partly drawn) [Compound 716, N-((9S,12S)-5^4-methyl-8,11,14-trioxo-9-phenethyl-4-oxa-7,10-diaza-1(3,1)-piperidina-5(1,3)-benzenacyclotetradecaphane-12-yl)piperazine-1-carboxamide], the IC50 in assay [1] was less than 100 nM; in assay [2], less than 100 nM; in assay [3] it was less than 100 nM; in assay [4], less than 100 nM; in assay [5], less than 100 nM; in assay [6], 100 to 500 nM.

`Cc1ccc2cc1CNC(=O)[C@H](CCc1ccccc1)NC(=O)[C@@H](NC1CCC1)CC(=O)N1CCCC(CCO2)C1` (stereo partly drawn) [Compound 717, (9S,12S)-12-(cyclobutylamino)-5^4-methyl-9-phenethyl-4-oxa-7,10-diaza-1(3,1)-piperidina-5(1,3)-benzenacyclotetradecaphane-8,11,14-trione]: the IC50 in assay [1] is less than 100 nM; in assay [2], less than 100 nM; in assay [3], less than 100 nM; in assay [4], 100 to 500 nM; in assay [5], 100 to 500 nM; in assay [6] it was 100 to 500 nM.

On to `Cc1ccc2cc1CNC(=O)[C@H](CCc1ccccc1)NC(=O)[C@@H](NC(=O)Cc1ccc(N)cc1C)CCCC(=O)NCCCCO2` [Compound 718, 2-(4-amino-2-methylphenyl)-N-((12S,15S)-1^4-methyl-8,13,16-trioxo-15-phenethyl-2-oxa-7,14,17-triaza-1(1,3)-benzenacyclooctadecaphane-12-yl)acetamide], for which the IC50 in assay [1] was less than 100 nM; in assay [2] it was less than 100 nM; in assay [3], less than 100 nM; in assay [4], 100 to 500 nM; in assay [5] it was less than 100 nM; in assay [6], 100 to 500 nM.

On to `Cc1ccc2cc1CNC(=O)[C@H](CCc1ccccc1)NC(=O)[C@@H](NC(=O)[C@@H](N)CC(=O)O)CC(=O)N1CCCC(CCO2)C1` (stereo partly drawn) [Compound 719, (3S)-3-amino-4-(((9S,12S)-5^4-methyl-8,11,14-trioxo-9-phenethyl-4-oxa-7,10-diaza-1(3,1)-piperidina-5(1,3)-benzenacyclotetradecaphane-12-yl)amino)-4-oxobutanoic acid], for which the IC50 in assay [1] is less than 100 nM; in assay [2], less than 100 nM; in assay [3] it was less than 100 nM; in assay [4] it was 100 to 500 nM; in assay [5] it was 100 to 500 nM; in assay [6] it was 500 to 1000 nM.

Take `Cc1ccc2cc1CNC(=O)[C@H](CCc1ccccc1)NC(=O)[C@@H](NC(=O)CCNC1CC3(COC3)C1)CC(=O)N1CCCC(CCO2)C1` (stereo partly drawn) [Compound 720, 3-((2-oxaspiro[3.3]heptan-6-yl)amino)-N-((9S,12S)-5^4-methyl-8,11,14-trioxo-9-phenethyl-4-oxa-7,10-diaza-1(3,1)-piperidina-5(1,3)-benzenacyclotetradecaphane-12-yl)propanamide]: the IC50 in assay [1] was less than 100 nM; in assay [2], less than 100 nM; in assay [3], less than 100 nM; in assay [4], 100 to 500 nM; in assay [5], 100 to 500 nM; in assay [6] it was 500 to 1000 nM.

Turning to `Cc1ccc2cc1CNC(=O)[C@H](CCc1ccccc1)NC(=O)[C@@H](NC(=O)C1CC3(CNC3)C1)CC(=O)N1CCCC(CCO2)C1` (stereo partly drawn) [Compound 721, N-((9S,12S)-5^4-methyl-8,11,14-trioxo-9-phenethyl-4-oxa-7,10-diaza-1(3,1)-piperidina-5(1,3)-benzenacyclotetradecaphane-12-yl)-2-azaspiro[3.3]heptane-6-carboxamide], the IC50 in assay [1] was less than 100 nM; in assay [2], 100 to 500 nM; in assay [3] it was less than 100 nM; in assay [4], 100 to 500 nM; in assay [5], less than 100 nM; in assay [6], less than 100 nM.

For `Cc1ccc2cc1CNC(=O)[C@H](CCc1ccccc1)NC(=O)[C@@H](NC(=O)C(C)(C)CO)CCCC(=O)NCCCCO2` [Compound 722, 3-hydroxy-2,2-dimethyl-N-((12S,15S)-1^4-methyl-8,13,16-trioxo-15-phenethyl-2-oxa-7,14,17-triaza-1(1,3)-benzenacyclooctadecaphane-12-yl)propanamide], the IC50 in assay [1] was less than 100 nM; in assay [2] it was 100 to 500 nM; in assay [3], less than 100 nM; in assay [4] it was 100 to 500 nM; in assay [5], 100 to 500 nM; in assay [6] it was 500 to 1000 nM.

Turning to `Cc1ccc2cc1CNC(=O)[C@H](CCc1ccccc1)NC(=O)[C@@H](NC(=O)C1CC3CCC(C1)N3)CC(=O)N1CCCC(CCO2)C1` (stereo partly drawn) [Compound 723, N-((9S,12S)-5^4-methyl-8,11,14-trioxo-9-phenethyl-4-oxa-7,10-diaza-1(3,1)-piperidina-5(1,3)-benzenacyclotetradecaphane-12-yl)-8-azabicyclo[3.2]octane-3-carboxamide], the IC50 in assay [1] was less than 100 nM; in assay [2], less than 100 nM; in assay [3], less than 100 nM; in assay [4], 100 to 500 nM; in assay [5], 100 to 500 nM; in assay [6] it was 100 to 500 nM.

For `Cc1ccc2cc1CNC(=O)[C@H](CCc1ccccc1)NC(=O)[C@@H](NC(=O)[C@@H](N)CCC(=O)O)CC(=O)N1CCCC(CCO2)C1` (stereo partly drawn) [Compound 724, (4S)-4-amino-5-(((9S,12S)-5^4-methyl-8,11,14-trioxo-9-phenethyl-4-oxa-7,10-diaza-1(3,1)-piperidina-5(1,3)-benzenacyclotetradecaphane-12-yl)amino)-5-oxopentanoic acid], the IC50 is less than 100 nM in assay [1]; less than 100 nM in assay [2]; less than 100 nM in assay [3]; 100 to 500 nM in assay [4]; 100 to 500 nM in assay [5]; 500 to 1000 nM in assay [6].

Consider `Cc1ccc2cc1CNC(=O)[C@H](CCc1ccccc1)NC(=O)[C@@H](NC(=O)CCOC1CC3(CNC3)C1)CC(=O)N1CCCC(CCO2)C1` (stereo partly drawn) [Compound 725, 3-((2-azaspiro[3.3]heptan-6-yl)oxy)-N-((9S,12S)-5^4-methyl-8,11,14-trioxo-9-phenethyl-4-oxa-7,10-diaza-1(3,1)-piperidina-5(1,3)-benzenacyclotetradecaphane-12-yl)propanamide], for which the IC50 is less than 100 nM in assay [1]; less than 100 nM in assay [2]; less than 100 nM in assay [3]; 100 to 500 nM in assay [4]; 100 to 500 nM in assay [5]; 100 to 500 nM in assay [6].

The record behind these values is US20240415819A1, “MACROCYCLIC COMPOUNDS AS PROTEASOME SUBUNIT BETA TYPE-5 INHIBITORS” (Lead Discovery Center GmbH, priority 2021, published 2024).
